Measurements as given in patent EP0085842A1, “Antimycosic agents” (BAYER AG, priority 1982, dated 1983).
Converted amounts (≈) assume the structure as drawn.

How the values were obtained:
Candida-Zellen = test: Antimycotic in-vivo activity (oral) in mouse candidosis; set-up: species or system Mäuse vom Typ SPF-CF1; key to Wirkung: +++++: sehr gute Wirkung = 90 % Überlebende am 6.Tag p.i.; ++++: gute Wirkung = 80 % Überlebende am 6.Tag p.i.; +++: Wirkung = 60 % Überlebende am 6.Tag p.i.; ++: schwache Wirkung = 40 % Überlebende am 6.Tag p.i.; +: Spur Wirkung = unter 40 % Überlebende am 6.Tag p.i.; k.W.: keine Wirkung; conditions: for Wirkung: mice infected i.v. with Candida, oral 50 - 100 mg/kg one hour before and seven hours after infection, survivors on day 6 p.i.; for Wirkung compared with known compounds (A), (B), (C) and (D): mouse candidosis, oral 50 - 100 mg/kg
Protocol: Mäuse vom Typ SPF-CF1 wurden intravenös mit 1 - 2 x 10^6 logarithmisch wachsenden Candida-Zellen, die in physiologischer Kochsalzlösung suspendiert werden, infiziert. Eine Stunde vor und sieben Sunden nach der Infektion werden die Tiere mit jeweils 50 - 100 mg/kg Körpergewicht der Präparate oral behandelt.
Unbehandelte Tiere starben 3 bis 6 Tage post infektionem. Die Überlebensrate am 6. Tag post infektionem betrug bei unbehandelten Kontrolltieren etwa 5 %.
+++++ = sehr gute Wirkung = 90 % Überlebende am 6.Tag p.i. ++++ = gute Wirkung = 80 % Überlebende am 6.Tag p.i. +++ = Wirkung = 60 % Überlebende am 6.Tag p.i. ++ = schwache Wirkung = 40 % Überlebende am 6.Tag p.i. + = Spur Wirkung = unter 40 % Überlebende am 6.Tag p.i. k.W. = keine Wirkung

Torulopsis glabrata = test: Antimycotic in-vitro activity, serial dilution test (MIC); assay type: cell-based; conditions: Nakaseomyces glabratus; Fleischextrakt-Traubenzucker-Bouillon, 20°C, 24 to 96 h, inoculum 5 x 10^4 Keime/ml; read-out: MHK-Werte in γ/ml Nährmedium Torulopsis glabrata
Protocol: (§1) Versuchsbeschreibung: • Die in-vitro-Prüfungen wurden im Reihenverdünnungstest mit Keiminokula von durchschnittlich 5 x 10^4 Keimen/ml Substrat durchgeführt. Als Nährmedium dienten • a) für Dermatophyten und Schimmelpilze: Sabouraud's milieu d'epreuve • b) für Hefen: • Fleischextrakt-Traubenzucker-Bouillon.
(§2) Die Bebrütungstemperatur betrug 20°C, die Bebrütungsdauer lag bei 24 bis 96 Stunden bei Hefen und 96 Stunden bei Dermatophyten und Schimmelpilzen.

Candida albicans = test: as above; assay type: cell-based; conditions: Fleischextrakt-Traubenzucker-Bouillon, 20°C, 24 to 96 h, inoculum 5 x 10^4 Keime/ml, read-out: MHK-Werte in γ/ml Nährmedium Candida albicans
Protocol: as §1, §2

Microsporum canis = test: as above; assay type: cell-based; conditions: Sabouraud's milieu d'epreuve, 20°C, 96 h, inoculum 5 x 10^4 Keime/ml, read-out: MHK-Werte in γ/ml Nährmedium Microsporum canis
Protocol: as §1, §2

Aspergillus fumigatus = test: as above; assay type: cell-based; conditions: Sabouraud's milieu d'epreuve, 20°C, 96 h, inoculum 5 x 10^4 Keime/ml, read-out: MHK-Werte in γ/ml Nährmedium Aspergillus fumigatus
Protocol: as §1, §2

Trichophyton mentagr. = test: as above; assay type: cell-based, Trichophyton mentagrophytes; conditions: Sabouraud's milieu d'epreuve, 20°C, 96 h, inoculum 5 x 10^4 Keime/ml, read-out: MHK-Werte in γ/ml Nährmedium Trichophyton mentagr.
Protocol: as §1, §2

[1] = tested on: Trichophyton mentagrophytes; test: Antimycotic in-vivo activity (local) in experimental guinea pig trichophytosis; set-up: species or system Meerschweinchen; key: +++++: sehr gute Wirkung = keine Infektionszeichen am 12.-15.Tag p.i.; ++++: gute Wirkung = geringe Rötung, vereinzelt Schuppen; +++: Wirkung = Rötung, Schuppung, ohne Haarausfall; ++: schwache Wirkung = Rötung, Schuppung, Haarausfall; +: Spur Wirkung = flächiger Haarausfall, entzündliche Hautreaktion
[2] = local, 1 x daily from day 3 p.i., 15 %ige Lösung in Dimethylsulfoxid:Glycerin = 1:4, infection signs day 12-15 p.i.
[3] = local treatment, trichophytosis model

Compound	Wirkung (Candida-Zellen)	MIC (Torulopsis glabrata) [µg/mL]	MIC (Candida albicans) [µg/mL]	MIC (Microsporum canis) [µg/mL]	MIC (Aspergillus fumigatus) [µg/mL]	MIC (Trichophyton mentagr.) [µg/mL]	Wirkung [1, 2]	Wirkung compared with known compounds (A), (B), (C) and (D) (Candida-Zellen)	Wirkung [1, 3]
Cc1ccccc1OCC(O)(Cn1cncn1)C(C)(C)C (stereo not drawn) [(B), reference compound]	k.W.	> 64	32 (≈ 111 µM)	4 (≈ 13.8 µM)	32 (≈ 111 µM)	4 (≈ 13.8 µM)			
Cc1ccccc1CCC(O)(Cn1ccnc1)C(C)(C)C (stereo not drawn) [(D), reference compound]	k.W.	16 (≈ 55.9 µM)	2 (≈ 6.98 µM)	16 (≈ 55.9 µM)	64 (≈ 223 µM)	8 (≈ 27.9 µM)			
CC(C)(CF)C(O)(COc1ccc(F)cc1)Cn1cncn1 (stereo not drawn) [Beispiel 1, 4-Fluor-2-(4-fluorphenoxymethyl)-3,3-dimethyl-1-(1,2,4-triazol-1-yl)-butan-2-ol]	+++ (Wirkung = 60 % Überlebende am 6.Tag p.i.)	16 (≈ 51.4 µM)	< 1	8 (≈ 25.7 µM)	8 (≈ 25.7 µM)	4 (≈ 12.8 µM)	++	bessere Wirkung	
CC(C)(C)C(O)(CSc1ccc(Cl)cc1)Cn1cncn1 (stereo not drawn) [Beispiel 3, 2-(4-Chlorphenylthiomethyl)-3,3-dimethyl-1-(1,2,4-triazol-1-yl)-butan-2-ol]	++++ (gute Wirkung = 80 % Überlebende am 6.Tag p.i.)	2 (≈ 6.14 µM)	< 1	< 1	< 1	< 1		bessere Wirkung	
C=CC(C)(C)C(O)(COc1ccc(-c2ccccc2)cc1)Cn1cncn1 (stereo not drawn) [Beispiel 4, 4-(4-Biphenylyloxymethyl)-3,3-dimethyl-4-hydroxy-5-(1,2,4-triazol-1-yl)-1-penten]	+++++ (sehr gute Wirkung = 90 % Überlebende am 6.Tag p.i.)	32 (≈ 88 µM)	< 1	< 1	< 1	< 1		bessere Wirkung	
C=CC(C)(C)C(O)(COc1ccc(-c2ccccc2)cc1)Cn1ccnc1 (stereo not drawn) [Beispiel 5, 4-(4-Biphenylyloxymethyl)-3,3-dimethyl-4-hydroxy-5-(imidazol-1-yl)-1-penten]	++++ (gute Wirkung = 80 % Überlebende am 6.Tag p.i.)	< 1	< 1	< 1	< 1	< 1	+++	bessere Wirkung	Wirkung bis gute Wirkung
CC(C)(CF)C(O)(COc1ccc(Cl)cc1)Cn1cncn1 (stereo not drawn) [Beispiel 7]	+++++ (sehr gute Wirkung = 90 % Überlebende am 6.Tag p.i.)	< 1	< 1	2 (≈ 6.1 µM)	< 1	< 1	+++	bessere Wirkung	Wirkung bis gute Wirkung
Cc1cc(Cl)ccc1OCC(O)(Cn1cncn1)C(C)(C)CF (stereo not drawn) [Beispiel 8]	+++ (Wirkung = 60 % Überlebende am 6.Tag p.i.)	2 (≈ 5.85 µM)	< 1	< 1	4 (≈ 11.7 µM)	< 1	+++	bessere Wirkung	Wirkung bis gute Wirkung
CC(C)(CF)C(O)(CSc1ccc(Cl)c(Cl)c1)Cn1cncn1 (stereo not drawn) [Beispiel 12]	++++ (gute Wirkung = 80 % Überlebende am 6.Tag p.i.)	< 1	< 1	2 (≈ 5.29 µM)	< 1	< 1		bessere Wirkung	
C=CC(C)(C)C(O)(COc1ccc(Cl)cc1Cl)Cn1cncn1 (stereo not drawn) [Beispiel 23]	+ (Spur Wirkung = unter 40 % Überlebende am 6.Tag p.i.)	4 (≈ 11.2 µM)	< 1	8 (≈ 22.5 µM)	4 (≈ 11.2 µM)	< 1		bessere Wirkung	
C=CC(C)(C)C(O)(COc1ccc(F)cc1)Cn1cncn1 (stereo not drawn) [Beispiel 24]	++ (schwache Wirkung = 40 % Überlebende am 6.Tag p.i.)	8 (≈ 26.2 µM)	4 (≈ 13.1 µM)	8 (≈ 26.2 µM)	4 (≈ 13.1 µM)	< 1		bessere Wirkung	
CC(CF)(CF)C(O)(COc1ccc(Cl)cc1)Cn1ccnc1 (stereo not drawn) [Beispiel 31]	++++ (gute Wirkung = 80 % Überlebende am 6.Tag p.i.)						+++	bessere Wirkung	Wirkung bis gute Wirkung
CC(CF)(CF)C(O)(CCc1ccc(Cl)cc1Cl)Cn1ccnc1 (stereo not drawn) [Beispiel 36]	++++ (gute Wirkung = 80 % Überlebende am 6.Tag p.i.)	4 (≈ 10.6 µM)	< 1	4 (≈ 10.6 µM)	8 (≈ 21.2 µM)	2 (≈ 5.3 µM)		bessere Wirkung	
CC(CF)(CF)C(O)(CCc1ccc(Cl)cc1)Cn1ccnc1 (stereo not drawn) [Beispiel 37]	++++ (gute Wirkung = 80 % Überlebende am 6.Tag p.i.)	2 (≈ 5.83 µM)	4 (≈ 11.7 µM)	16 (≈ 46.7 µM)	2 (≈ 5.83 µM)	4 (≈ 11.7 µM)		bessere Wirkung	
CC(C)(CF)C(O)(CCc1ccc(Cl)cc1Cl)Cn1ccnc1 (stereo not drawn) [Beispiel 38]	+++ (Wirkung = 60 % Überlebende am 6.Tag p.i.)	2 (≈ 5.57 µM)	< 1	8 (≈ 22.3 µM)	16 (≈ 44.5 µM)	4 (≈ 11.1 µM)		bessere Wirkung	
C=CC(C)(C)C(O)(COc1ccc(Cl)cc1Cl)Cn1ccnc1 (stereo not drawn) [Beispiel 39]	++ (schwache Wirkung = 40 % Überlebende am 6.Tag p.i.)	< 1	2 (≈ 5.63 µM)	16 (≈ 45 µM)	32 (≈ 90.1 µM)	< 1		bessere Wirkung	
